Assay results as given in PubChem BioAssay (NCI).
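All cell lines were grown in 96-well plates and treated with compound for 48 hours. TGI: concentration producing complete growth inhibition.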

Legend:
Assay in all cases: NCI tumour cell line growth inhibition, 48 h
[1] = system: 786-0 renal
[2] = system: A498 renal
[3] = system: A549 NSCLC
[4] = system: ACHN renal
[5] = system: BT-549 breast
[6] = system: CAKI-1 renal
[7] = system: CCRF-CEM leukemia
[8] = system: COLO 205 colon
[9] = system: DU-145 prostate
[10] = system: EKVX NSCLC
[11] = system: HCC-2998 colon
[12] = system: HCT-116 colon
[13] = system: HCT-15 colon
[14] = system: HL-60(TB) leukemia
[15] = system: HOP-62 NSCLC
[16] = system: HOP-92 NSCLC
[17] = system: HS 578T breast
[18] = system: HT29 colon
[19] = system: IGROV1 ovarian
[20] = system: K-562 leukemia
[21] = system: KM12 colon
[22] = system: LOX IMVI melanoma
[23] = system: M14 melanoma
[24] = system: MALME-3M melanoma
[25] = system: MCF7 breast
[26] = system: MDA-MB-231 breast
[27] = system: MDA-MB-435
[28] = system: MDA-N
[29] = system: MOLT-4 leukemia
[30] = system: NCI-H226 lung
[31] = system: NCI-H23 lung
[32] = system: NCI-H460 lung
[33] = system: NCI-H522 lung
[34] = system: NCI/ADR-RES ovarian
[35] = system: OVCAR-3 ovarian
[36] = system: OVCAR-4 ovarian
[37] = system: OVCAR-5 ovarian
[38] = system: OVCAR-8 ovarian
[39] = system: PC-3 prostate
[40] = system: RPMI-8226 leukemia
[41] = system: RXF 393 renal
[42] = system: SF-268 CNS
[43] = system: SF-295 CNS
[44] = system: SF-539 CNS
[45] = system: SK-MEL-2 melanoma
[46] = system: SK-MEL-28 melanoma
[47] = system: SK-MEL-5 melanoma
[48] = system: SK-OV-3 ovarian
[49] = system: SN12C renal
[50] = system: SNB-19 CNS
[51] = system: SNB-75 CNS
[52] = system: SW-620 colon
[53] = system: T-47D breast
[54] = system: TK-10 renal
[55] = system: U251 CNS
[56] = system: UACC-257 melanoma
[57] = system: UACC-62 melanoma
[58] = system: UO-31 renal

Work on CC(=O)NS(=O)(=O)c1ccc(NCc2cccc3c(=O)c4ccc(Cl)cc4oc23)cc1 yielded a TGI [1] greater than 100 µM, a TGI [2] greater than 100 µM and a TGI [3] greater than 100 µM. The TGI [4] was greater than 100 µM, the TGI [5] was greater than 100 µM and the TGI [6] was 69.6 µM. The TGI [7] was greater than 86.7 µM, the TGI [8] was greater than 100 µM and the TGI [9] was greater than 100 µM. For the same compound, the TGI [10] was greater than 100 µM, the TGI [11] was greater than 100 µM and the TGI [12] was greater than 100 µM. The TGI [13] was greater than 55.4 µM, the TGI [14] was 5.43 µM and the TGI [15] was 96.8 µM. For the same compound, the TGI [16] was 69.7 µM, the TGI [17] was 97.7 µM and the TGI [18] was greater than 100 µM. It also gave a TGI [19] greater than 100 µM, a TGI [20] greater than 100 µM and a TGI [21] greater than 100 µM. The TGI [22] was greater than 100 µM, the TGI [23] was greater than 100 µM and the TGI [24] was greater than 93.5 µM. For the same compound, the TGI [25] was greater than 100 µM, the TGI [26] was greater than 100 µM and the TGI [27] was greater than 100 µM. For the same compound, the TGI [28] was greater than 100 µM, the TGI [29] was greater than 100 µM and the TGI [30] was greater than 100 µM. For the same compound, the TGI [31] was greater than 71.6 µM, the TGI [32] was 51 µM and the TGI [33] was greater than 83.8 µM. For the same compound, the TGI [34] was greater than 80.7 µM, the TGI [35] was greater than 93.3 µM and the TGI [36] was greater than 100 µM. For the same compound, the TGI [37] was greater than 100 µM, the TGI [38] was greater than 49.1 µM and the TGI [39] was greater than 86.2 µM. For the same compound, the TGI [40] was greater than 100 µM, the TGI [41] was 78.9 µM and the TGI [42] was greater than 100 µM. The TGI [43] was greater than 100 µM, the TGI [44] was greater than 65.3 µM and the TGI [45] was greater than 93.6 µM. For the same compound, the TGI [46] was greater than 100 µM, the TGI [47] was greater than 100 µM and the TGI [48] was greater than 100 µM. For the same compound, the TGI [49] was greater than 100 µM, the TGI [50] was greater than 100 µM and the TGI [51] was greater than 100 µM. The TGI [52] was greater than 100 µM, the TGI [53] was greater than 100 µM and the TGI [54] was greater than 100 µM. For the same compound, the TGI [55] was greater than 100 µM, the TGI [56] was greater than 100 µM and the TGI [57] was greater than 100 µM. The TGI [58] was greater than 100 µM.
Cc1ccc(N2C(=O)C3c4[nH]c5ccc(C)cc5c4C4CCC(C(C)(C)C)CC4C3C2=O)cc1 (centres undefined) showed a TGI [1] of 17.1 µM, a TGI [3] of 32.8 µM and a TGI [5] of 75.9 µM. The TGI [6] was 45.3 µM, the TGI [7] was 26.7 µM and the TGI [8] was greater than 100 µM. The TGI [9] was 62 µM, the TGI [10] was 43.4 µM and the TGI [12] was 37.1 µM. It also gave a TGI [13] greater than 100 µM, a TGI [14] of 82.8 µM and a TGI [15] of 24.5 µM. The TGI [16] was 52.1 µM, the TGI [17] was 44 µM and the TGI [18] was 75.5 µM. The TGI [19] was 36.5 µM, the TGI [20] was 16.1 µM and the TGI [21] was 62.4 µM. The TGI [22] was 55.6 µM, the TGI [23] was greater than 100 µM and the TGI [24] was 44.4 µM. For the same compound, the TGI [25] was 28.7 µM, the TGI [26] was 26.7 µM and the TGI [27] was 55.1 µM. The TGI [28] was 70.1 µM, the TGI [29] was 8.06 µM and the TGI [30] was 48.7 µM. It also gave a TGI [31] of 39.7 µM, a TGI [32] of 20.4 µM and a TGI [33] of 39.4 µM. For the same compound, the TGI [34] was 60.2 µM, the TGI [35] was 27.3 µM and the TGI [36] was 20.9 µM. For the same compound, the TGI [37] was 30.8 µM, the TGI [38] was 24.4 µM and the TGI [39] was 70.3 µM. It also gave a TGI [40] of 46.3 µM, a TGI [42] of 33.2 µM and a TGI [43] of 40.7 µM. It also gave a TGI [45] of 99.5 µM, a TGI [46] of 90.6 µM and a TGI [47] greater than 100 µM. It also gave a TGI [49] of 27.3 µM, a TGI [50] of 80.5 µM and a TGI [52] of 58.7 µM. For the same compound, the TGI [53] was 25.9 µM, the TGI [54] was 39.5 µM and the TGI [55] was 27.7 µM. It also gave a TGI [56] greater than 100 µM, a TGI [57] of 30 µM and a TGI [58] greater than 100 µM.
